Data published in patent US20060046976A1, “Method for increasing the bone mineral density and bone micro-architecture or connectivity of a mammal using N-acylated glucosamines” (priority 2004, published 2006).

System: SCW-arthritis rats
Assay: BMD by DXA of femurs and tibias in SCW-arthritis rats
Assay type: in vivo, Lewis type rats
Conditions: 6 weeks
Excerpt: In this experiment performed and described herein, there were four groups of Lewis type rats, consisting of eight (8) animals in each group. Lewis type rats had experimental arthritis induced by a single intra-peritoneal injection of streptococcal cell wall antigen (SCW). This type of arthritis has an acute and chronic phase and affects mostly the distal joints in the hind limbs of the animals, and, less so, the knees and hips. Groups 1-3, inclusive, had inflammatory arthritis induced. The compound used in the experiment was used to supplement normal rat chow feed on a daily basis. Feed and water were unrestricted. Group I feed was supplemented with the compound shown in formula II, abbreviated as GlcNBu, at a dose of 200mg/kg/day. […] All the dissected femurs and tibiae were scanned with dual energy x-ray absorptiometry (DXA) were measured at the distal femur, and proximal tibia using a user defined region of interest (ROI). • Micro-CT imaging protocol. […] The reconstructed tibia images were analyzed with MicroView 2.0 software (GE Healthcare, London, ON) in two and three dimensions. • Three-dimensional trabecular bone measurements. […] On 3D analysis, the tissue volume (3D-TV, mm3) and trabecular bone volume (3D-BV, mm3) were measured directly, and the fractional trabecular bone volume (3D-BV/TV, %) was calculated. […]

CCCC(=O)N[C@H]1C(O)O[C@H](CO)[C@@H](O)[C@@H]1O (stereo partly drawn) [GlcNBu, N-butyryl-D-glucosamine]
BMD femurs and tibias, Group I (GlcNBu 200 mg) vs Group 3 (GlcNBu 20 mg) (200 mg/kg/day in feed): much greater | BMD differences between Group 1 (GlcNBu 200 mg) and other Groups (200 mg/kg/day): Statistical significance of the differences was achieved
